Measured values reported in US20250129070A1, “BIFUNCTIONAL ANDROGEN RECEPTOR COMPOUNDS” (priority 2023, published 2025).

How the values were obtained:
AR / CBP ternary complex = assay: Ternary complex formation assay (sandwich ELISA, AR capture / CBP detection) in VCaP cell lysates; assay type: cell-based; settings: 1.5 hours treatment, sandwich ELISA (AR capture, CBP or p300 detection)
In short: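 VCaP cells (50K/well, 5% charcoal-stripped FBS, ≥3 days) treated with bifunctional compound for 1.5 h, then lysed 30 min at 4 °C. AR captured on anti-AR (AR 441) plates; bound CBP or p300 detected by rabbit mAb plus HRP secondary. QuantaRed chemifluorescence read at ex 570/em 585, immediately and at 5 and 15 min.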

VCaP cells = assay: VCaP growth inhibition assay; assay type: cell-based; settings: 30 pM R1881, 9 days, CTG
In short: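 VCaP cells in phenol red-free DMEM/5% CSS, pre-incubated 72 h, then stimulated with R1881 (final 30 pM) and treated with 1:5 serial dilutions (final 100 nM to 10 fM) for 9 days at 37 °C. Viability by CellTiter-Glo luminescence; IC50 from 4-parameter logistic fit of RLU vs concentration.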

| EC50 (AR / CBP ternary complex) | IC50 (VCaP cells) | SMILES |
| --- | --- | --- |
| 1 to 10 nM | 1 to 100 nM | COc1cc(OC2C(C)(C)C(NC(=O)c3ccc(N4CCC(C5CCN(c6ccc(-c7cc8cccc(-c9nn(C%10CCOCC%10)c%10c9CN(C(C)=O)CC%10)c8cn7)cn6)CC5)CC4)cc3)C2(C)C)ccc1C#N (stereo not shown) [Compound 267, 4-[4-[1-[5-[8-(5-acetyl-1-tetrahydropyran-4-yl-6,7-dihydro-4H-pyrazolo[4,3-c]pyridin-3-yl)-3-isoquinolyl]-2-pyridyl]-4-piperidyl]-1-piperidyl]-N-[3-(4-cyano-3-methoxy-phenoxy)-2,2,4,4-tetramethyl-cyclobutyl]benzamide] |
| < 1 nM | 0.1 to 1 nM | CC(=O)N1CCc2c(c(-c3cccc4cc(-c5ccc(C(=O)NCCC6CCN(c7ncc(C(=O)NC8C(C)(C)C(Oc9ccc(C#N)c(Cl)c9)C8(C)C)cn7)CC6)nc5)ncc34)nn2C2CCOCC2)C1 (stereo not shown) [Compound 179, 2-[4-[2-[[5-[8-(5-acetyl-1-tetrahydropyran-4-yl-6,7-dihydro-4H-pyrazolo[4,3-c]pyridin-3-yl)-3-isoquinolyl]pyridine-2-carbonyl]amino]ethyl]-1-piperidyl]-N-[3-(3-chloro-4-cyano-phenoxy)-2,2,4,4-tetramethyl-cyclobutyl]pyrimidine-5-carboxamide] |
| < 1 nM | 0.1 to 1 nM | CC(=O)N1CCc2c(c(N3CCCc4cc(-c5cnn(C)c5)c(C(F)F)cc43)nn2C2CCC(CN3CCN(c4ncc(C(=O)NC5C(C)(C)C(Oc6ccc(C#N)c(Cl)c6)C5(C)C)cn4)CC3)CC2)C1 (stereo not shown) [Compound 320, 2-[4-[[4-[5-acetyl-3-[7-(difluoromethyl)-6-(1-methylpyrazol-4-yl)-3,4-dihydro-2H-quinolin-1-yl]-6,7-dihydro-4H-pyrazolo[4,3-c]pyridin-1-yl]cyclohexyl]methyl]piperazin-1-yl]-N-[3-(3-chloro-4-cyano-phenoxy)-2,2,4,4-tetramethyl-cyclobutyl]pyrimidine-5-carboxamide] |
| < 1 nM | 0.1 to 1 nM | CC(=O)N1CCc2c(c(N3CCCc4cc(-c5cnn(C)c5)c(C)cc43)nn2C2CCN(CC3CCN(c4ncc(C(=O)NC5C(C)(C)C(Oc6ccc(C#N)c(Cl)c6)C5(C)C)cn4)CC3)CC2)C1 (stereo not shown) [Compound 26, 2-[4-[[4-[5-acetyl-3-[7-methyl-6-(1-methylpyrazol-4-yl)-3,4-dihydro-2H-quinolin-1-yl]-6,7-dihydro-4H-pyrazolo[4,3-c]pyridin-1-yl]-1-piperidyl]methyl]-1-piperidyl]-N-[3-(3-chloro-4-cyano-phenoxy)-2,2,4,4-tetramethyl-cyclobutyl]pyrimidine-5-carboxamide] |
| < 1 nM | 0.1 to 1 nM | C[C@@H]1CC(=O)Nc2cccc(-c3ccc4c(c3)c(-c3cnn(C)c3)nn4CCCN(C)c3ncc(C(=O)NC4C(C)(C)C(Oc5ccc(C#N)c(Cl)c5)C4(C)C)cn3)c2N1 (stereo partly drawn) [Compound 50, N-[3-(3-chloro-4-cyano-phenoxy)-2,2,4,4-tetramethyl-cyclobutyl]-2-[methyl-[3-[5-[(4R)-4-methyl-2-oxo-1,3,4,5-tetrahydro-1,5-benzodiazepin-6-yl]-3-(1-methylpyrazol-4-yl)indazol-1-yl]propyl]amino]pyrimidine-5-carboxamide] |
| 10 to 100 nM | ≤ 0.1 nM | CC(=O)N1CCc2c(c(N3CCCc4cc(-c5cnn(C)c5)c(C(F)F)cc43)nn2C2CCC3(CC2)CCN(CC2CN(c4ccc(C(=O)NC5C(C)(C)C(Oc6ccc(C#N)c(Cl)c6)C5(C)C)nn4)C2)CC3)C1 (stereo not shown) [Compound 209, 6-[3-[[9-[5-acetyl-3-[7-(difluoromethyl)-6-(1-methylpyrazol-4-yl)-3,4-dihydro-2H-quinolin-1-yl]-6,7-dihydro-4H-pyrazolo[4,3-c]pyridin-1-yl]-3-azaspiro[5.5]undecan-3-yl]methyl]azetidin-1-yl]-N-[3-(3-chloro-4-cyano-phenoxy)-2,2,4,4-tetramethyl-cyclobutyl]pyridazine-3-carboxamide] |
| < 1 nM | 0.1 to 1 nM | COc1cc(OC2C(C)(C)C(NC(=O)c3ccc(N4CCC(CCc5ccc(-c6cc7cccc(-c8nn(C9CCOCC9)c9c8CN(C(C)=O)CC9)c7cn6)cc5)CC4)cc3)C2(C)C)ccc1C#N (stereo not shown) [Compound 254, 4-[4-[2-[4-[8-(5-acetyl-1-tetrahydropyran-4-yl-6,7-dihydro-4H-pyrazolo[4,3-c]pyridin-3-yl)-3-isoquinolyl]phenyl]ethyl]-1-piperidyl]-N-[3-(4-cyano-3-methoxy-phenoxy)-2,2,4,4-tetramethyl-cyclobutyl]benzamide] |

| SMILES | EC50 (AR / CBP ternary complex) | IC50 (VCaP cells) |
| --- | --- | --- |
| CC(=O)N1CCc2c(c(N3CCCc4cc(-c5cnn(C)c5)c(C(F)F)cc43)nn2C2CC3(C2)CN(C(=O)C2CC4(C2)CN(c2ncc(C(=O)NC5C(C)(C)C(Oc6ccc(C#N)c(Cl)c6)C5(C)C)cn2)C4)C3)C1 (stereo not shown) [Compound 217, 2-[6-[6-[5-acetyl-3-[7-(difluoromethyl)-6-(1-methylpyrazol-4-yl)-3,4-dihydro-2H-quinolin-1-yl]-6,7-dihydro-4H-pyrazolo[4,3-c]pyridin-1-yl]-2-azaspiro[3.3]heptane-2-carbonyl]-2-azaspiro[3.3]heptan-2-yl]-N-[3-(3-chloro-4-cyano-phenoxy)-2,2,4,4-tetramethyl-cyclobutyl]pyrimidine-5-carboxamide] | < 1 nM | 0.1 to 1 nM |
| C[C@@H]1CC(=O)Nc2cccc(-c3ccc4c(c3)c(-c3cnn(C)c3)nn4CCN(C)c3ncc(C(=O)NC4C(C)(C)C(Oc5ccc(C#N)c(Cl)c5)C4(C)C)cn3)c2N1 (stereo partly drawn) [Compound 48, N-[3-(3-chloro-4-cyano-phenoxy)-2,2,4,4-tetramethyl-cyclobutyl]-2-[methyl-[2-[5-[(4R)-4-methyl-2-oxo-1,3,4,5-tetrahydro-1,5-benzodiazepin-6-yl]-3-(1-methylpyrazol-4-yl)indazol-1-yl]ethyl]amino]pyrimidine-5-carboxamide] | > 100 nM | 1 to 100 nM |
| CC(=O)N1CCc2c(c(N3CCCc4cc(-c5cnn(C)c5)c(C(F)F)cc43)nn2C2CCN(C3CC(Oc4ncc(C(=O)NC5C(C)(C)C(Oc6ccc(C#N)c(Cl)c6)C5(C)C)cn4)C3)CC2)C1 (stereo not shown) [Compound 376, 2-[3-[4-[5-acetyl-3-[7-(difluoromethyl)-6-(1-methylpyrazol-4-yl)-3,4-dihydro-2H-quinolin-1-yl]-6,7-dihydro-4H-pyrazolo[4,3-c]pyridin-1-yl]-1-piperidyl]cyclobutoxy]-N-[3-(3-chloro-4-cyano-phenoxy)-2,2,4,4-tetramethyl-cyclobutyl]pyrimidine-5-carboxamide] | < 1 nM | 0.1 to 1 nM |
| CC(=O)N1CCc2c(c(N3CCCc4cnccc43)nn2C2CCN(C(=O)C3CCN(c4ncc(C(=O)NC5C(C)(C)C(Oc6ccc(C#N)c(Cl)c6)C5(C)C)cn4)CC3)CC2)C1 (stereo not shown) [Compound 128, 2-[4-[4-[5-acetyl-3-(3,4-dihydro-2H-1,6-naphthyridin-1-yl)-6,7-dihydro-4H-pyrazolo[4,3-c]pyridin-1-yl]piperidine-1-carbonyl]-1-piperidyl]-N-[3-(3-chloro-4-cyano-phenoxy)-2,2,4,4-tetramethyl-cyclobutyl]pyrimidine-5-carboxamide] | > 100 nM | > 100 nM |
